Measured values reported in patent US10689339B2, “Pyrrolidine derivatives” (Hoffmann-La Roche Inc., priority 2016, dated 2020).

Target: human Cat S (Homo sapiens (Human), UniProt P25774)
Assay: Cathepsin enzyme inhibition assay (fluorogenic peptide substrate Z-Val-Val-Arg-AMC)
Format: biochemical
Conditions: enzyme 1 nM, substrate 20 μM, pH 6.5
Experimental: Cathepsin Enzyme Inhibition Assay
Enzyme activity is measured by observing the increase in fluorescence intensity caused by cleavage of a peptide substrate containing a fluorophore whose emission is quenched in the intact peptide.
Assay buffer: 100 mM potassium phosphate pH 6.5, EDTA-Na 5 mM, Triton X-100 0.001%, DTT 5 mM.
Enzymes (all at 1 nM): human and mouse Cathepsin S, Cat K, Cat B, Cat L.
Substrate (20 μM): Z-Val-Val-Arg-AMC, except for Cat K which uses Z-Leu-Arg-AMC (both from Bachem).
AMC=7-Amino-4-Methyl-Coumarin.
Excitation 360 nm, Emission 465 nm.
Enzyme is added to the substance dilutions in 96-well microtitre plates and the reaction is started with substrate. […] IC50 are calculated by standard methods.
Inhibition of human Cat S, mouse Cat S, human Cat K, human Cat B, human Cat L and mouse Cat L have been measured separately.

human Cat S, sequence (P25774 115-331): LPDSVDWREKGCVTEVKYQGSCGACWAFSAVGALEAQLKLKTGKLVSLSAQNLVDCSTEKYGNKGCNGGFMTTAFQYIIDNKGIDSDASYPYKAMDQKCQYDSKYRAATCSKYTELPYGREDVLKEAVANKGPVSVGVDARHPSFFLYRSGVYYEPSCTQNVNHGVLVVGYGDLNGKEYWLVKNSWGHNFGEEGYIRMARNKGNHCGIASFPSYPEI

SMILES | IC50 [nM]
Cc1cc(-n2ccc(C(F)(F)F)n2)ccc1S(=O)(=O)[C@@H]1C[C@@H](C(=O)NC2(C#N)CC2)N(C(=O)C2(C(F)(F)F)CC2)C1 [Example 19, (2S,4R)—N-(1-cyanocyclopropyl)-4-(2-methyl-4-(3-(trifluoromethyl)-1H-pyrazol-1-yl)phenylsulfonyl)-1-(1-(trifluoromethyl)cyclopropanecarbonyl)pyrrolidine-2-carboxamide] | 1.43
Cn1nc(C(F)(F)F)cc1-c1ccc(S(=O)(=O)[C@@H]2C[C@@H](C(=O)NC3(C#N)CC3)N(C(=O)C3(C(F)(F)F)CC3)C2)c(C(F)(F)F)c1 [Example 3, (2S,4R)-4-[4-(2-Methyl-5-trifluoromethyl-2Hpyrazol-3-yl)-2-trifluoromethyl-benzenesulfonyl]-1-(1-trifluoromethyl-cyclopropanecarbonyl)-pyrrolidine-2-carboxylic acid (1-cyano-cyclopropyl)-amide] | 1.02
Cc1cc(C(F)(F)F)nn1-c1ccc(S(=O)(=O)[C@@H]2C[C@@H](C(=O)NC3(C#N)CC3)N(C(=O)C3(C(F)(F)F)CC3)C2)c(C(F)(F)F)c1 [Example 23, (2S,4R)-4-[4-(5-Methyl-3-trifluoromethyl-pyrazol-1-yl)-2-trifluoromethyl-benzenesulfonyl]-1-(1-trifluoromethyl-cyclopropanecarbonyl)-pyrrolidine-2-carboxylic acid (1-cyano-cyclopropyl)-amide] | 1.12
Cc1nc(C)n(-c2ccc(S(=O)(=O)[C@@H]3C[C@@H](C(=O)NC4(C#N)CC4)N(C(=O)C4(C(F)(F)F)CC4)C3)c(C(F)(F)F)c2)n1 [Example 27, (2S,4R)-4-[4-(3,5-Dimethyl-[1,2,4]triazol-1-yl)-2-trifluoromethyl-benzenesulfonyl]-1-(1-trifluoromethyl-cyclopropanecarbonyl)-pyrrolidine-2-carboxylic acid (1-cyano-cyclopropyl)-amide] | 0.558
Cc1cc(-c2cc(C(F)(F)F)nn2C)ccc1S(=O)(=O)[C@@H]1C[C@@H](C(=O)NC2(C#N)CC2)N(C(=O)C2(C(F)(F)F)CC2)C1 [Example 32, (2S,4R)—N-(1-cyanocyclopropyl)-4-(2-methyl-4-(1-methyl-3-(trifluoromethyl)-1H-pyrazol-5-yl)phenylsulfonyl)-1-(1-(trifluoromethyl)cyclopropanecarbonyl) pyrrolidine-2-carboxamide] | 0.955
N#CC1(NC(=O)[C@@H]2C[C@@H](S(=O)(=O)c3ccc(OC4CCC4)cc3Cl)CN2C(=O)C2(C(F)(F)F)CC2)CC1 [Example 21, (2S,4R)-4-(2-chloro-4-cyclobutoxyphenylsulfonyl)-N-(1-cyanocyclopropyl)-1-(1-(trifluoromethyl)cyclopropanecarbonyl)pyrrolidine-2-carboxamide] | 1.07
N#CC1(NC(=O)[C@@H]2C[C@@H](S(=O)(=O)c3ccc(-n4cncn4)cc3-n3cncn3)CN2C(=O)C2(C(F)(F)F)CC2)CC1 [Example 11, (2S,4R)—N-(1-cyanocyclopropyl)-4-(2,4-di(1H-1,2,4-triazol-1-yl)phenylsulfonyl)-1-(1-(trifluoromethyl)cyclopropanecarbonyl)pyrrolidine-2-carboxamide] | 12.6
N#CC1(NC(=O)[C@@H]2C[C@@H](S(=O)(=O)c3ccc(-n4ccnn4)cc3)CN2C(=O)C2(C(F)(F)F)CC2)CC1 [Example 34, (2S,4R)-4-(4-(1H-1,2,3-triazol-1-yl)phenylsulfonyl)-N-(1-cyanocyclopropyl)-1-(1-(trifluoromethyl)cyclopropanecarbonyl)pyrrolidine-2-carboxamide] | 1.06

Second part, the molecule after the results:

IC50 [nM] | SMILES
0.585 | Cc1ncc(-c2ccc(S(=O)(=O)[C@@H]3C[C@@H](C(=O)NC4(C#N)CC4)N(C(=O)C4(C(F)(F)F)CC4)C3)c(C(F)(F)F)c2)s1 [Example 63, (2S,4R)-4-[4-(2-Methyl-thiazol-5-yl)-2-trifluoromethyl-benzenesulfonyl]-1-(1-trifluoromethyl-cyclopropanecarbonyl)-pyrrolidine-2-carboxylic acid (1-cyano-cyclopropyl)-amide]
1.44 | Cc1noc(C)c1-c1ccc(S(=O)(=O)[C@@H]2C[C@@H](C(=O)NC3(C#N)CC3)N(C(=O)C3(C(F)(F)F)CC3)C2)cc1 [Example 55, (2S,4R)—N-(1-cyanocyclopropyl)-4-(4-(3,5-dimethylisoxazol-4-yl)phenylsulfonyl)-1-(1-(trifluoromethyl)cyclopropanecarbonyl)pyrrolidine-2-carboxamide]
0.614 | Cc1nc(C)c(-c2ccc(S(=O)(=O)[C@@H]3C[C@@H](C(=O)NC4(C#N)CC4)N(C(=O)C4(C(F)(F)F)CC4)C3)c(C)c2)s1 [Example 60, (2S,4R)—N-(1-cyanocyclopropyl)-4-(4-(2,4-dimethylthiazol-5-yl)-2-methylphenylsulfonyl)-1-(1-(trifluoromethyl)cyclopropanecarbonyl)pyrrolidine-2-carboxamide]
0.51 | Cc1cc(-c2cnc(N)nc2)ccc1S(=O)(=O)[C@@H]1C[C@@H](C(=O)NC2(C#N)CC2)N(C(=O)C2(C(F)(F)F)CC2)C1 [Example 44, (2S,4R)-4-(4-(2-aminopyrimidin-5-yl)-2-methylphenylsulfonyl)-N-(1-cyanocyclopropyl)-1-(1-(trifluoromethyl)cyclopropanecarbonyl)pyrrolidine-2-carboxamide]
0.65 | Cc1cc(-c2c(C)noc2C)ccc1S(=O)(=O)[C@@H]1C[C@@H](C(=O)NC2(C#N)CC2)N(C(=O)C2(C(F)(F)F)CC2)C1 [Example 64, (2S,4R)—N-(1-cyanocyclopropyl)-4-(4-(3,5-dimethylisoxazol-4-yl)-2-methylphenylsulfonyl)-1-(1-(trifluoromethyl)cyclopropanecarbonyl)pyrrolidine-2-carboxamide]
0.909 | Cc1nc(C)c(-c2ccc(S(=O)(=O)[C@@H]3C[C@@H](C(=O)NC4(C#N)CC4)N(C(=O)C4(C(F)(F)F)CC4)C3)cc2)s1 [Example 49, (2S,4R)—N-(1-cyanocyclopropyl)-4-(4-(2,4-dimethylthiazol-5-yl)phenylsulfonyl)-1-(1-(trifluoromethyl)cyclopropanecarbonyl)pyrrolidine-2-carboxamide]
0.613 | Cc1ncc(-c2ccc(S(=O)(=O)[C@@H]3C[C@@H](C(=O)NC4(C#N)CC4)N(C(=O)C4(C(F)(F)F)CC4)C3)c(C)c2)s1 [Example 61, (2S,4R)—N-(1-cyanocyclopropyl)-4-(2-methyl-4-(2-methylthiazol-5-yl)phenylsulfonyl)-1-(1-(trifluoromethyl)cyclopropanecarbonyl)pyrrolidine-2-carboxamide]
3.21 | CCOc1ccccc1-c1ccc(S(=O)(=O)[C@@H]2C[C@@H](C(=O)NC3(C#N)CC3)N(C(=O)C3(C(F)(F)F)CC3)C2)cc1 [Example 38, (2S,4R)—N-(1-cyanocyclopropyl)-4-(2′-ethoxybiphenyl-4-ylsulfonyl)-1-(1-(trifluoromethyl)cyclopropanecarbonyl)pyrrolidine-2-carboxamide]
0.86 | Cc1cc(-c2ccccc2C#N)ccc1S(=O)(=O)[C@@H]1C[C@@H](C(=O)NC2(C#N)CC2)N(C(=O)C2(C(F)(F)F)CC2)C1 [Example 41, (2S,4R)-4-(2′-cyano-3-methylbiphenyl-4-ylsulfonyl)-N-(1-cyanocyclopropyl)-1-(1-(trifluoromethyl)cyclopropanecarbonyl)pyrrolidine-2-carboxamide]
2.6 | Cc1cc(C(F)(F)F)nn1-c1ccc(S(=O)(=O)[C@@H]2C[C@@H](C(=O)NC3(C#N)CC3)N(C(=O)C3(C(F)(F)F)CC3)C2)cc1 [Example 36, (2S,4R)—N-(1-cyanocyclopropyl)-4-(4-(5-methyl-3-(trifluoromethyl)-1H-pyrazol-1-yl)phenylsulfonyl)-1-(1-(trifluoromethyl)cyclopropanecarbonyl)pyrrolidine-2-carboxamide]
497 | N#CC1(NC(=O)[C@@H]2C[C@@H](S(=O)(=O)c3ccc(-n4cnc(Cl)n4)cc3)CN2C(=O)C2(C(F)(F)F)CC2)CC1 [Example 69, (2S,4R)-4-(4-(3-chloro-1H-1,2,4-triazol-1-yl)phenylsulfonyl)-N-(1-cyanocyclopropyl)-1-(1-(trifluoromethyl)cyclopropanecarbonyl)pyrrolidine-2-carboxamide]
